Assay [1] deals with BRD4 protein (Homo sapiens (Human), UniProt O60885). As to the kind of experiment: BRD4 protein degradation inducing action in LNCaP cells (immunofluorescence, 6 hr). Format: cell-based. As to conditions: anti-BRD4 fluorescence intensity. In a few lines: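 LNCaP cells in 10% FBS/RPMI1640 exposed to compound for 6 hr, fixed, permeabilized and immunostained for BRD4 with Alexa Fluor 546 secondary; fluorescence (ex 560, em 572 nm) read by imaging. DC50 = concentration giving 50% of untreated signal, interpolated linearly between the two bracketing points.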

Assay [2] relates to human prostate cancer LNCaP cells. As to the kind of experiment: Cytotoxic action on LNCaP cells (WST-8, 96 hr). As to conditions: 96 hr culture. It is filed as cell-based. In a few lines:
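Cells in 10% FBS/RPMI1640 plated overnight at 37° C, 5% CO2, then exposed to compound (DMSO stock diluted in medium) for 96 hr. Viable cells measured by WST-8. IC50 = concentration giving 50% survival versus untreated, interpolated linearly between the two bracketing points.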
(In general: Formazan colour is commonly taken as a measure of viable cells.)

As a reminder, the DC50 is the concentration at which degradation of the target reaches its halfway point. High values mean a less potent degrader, low ones a more potent degrader. In general, IC50 refers to the concentration at which inhibition is half-maximal. Read a high IC50 as weaker potency.

`CCc1ccc(NS(=O)(=O)c2ccc(CNC(=O)c3ccc(-c4ccc(C5=N[C@@H](CC(=O)OC)c6nnc(C)n6-c6sc(C)c(C)c65)cc4)c(C)c3)cc2)c2[nH]cc(C#N)c12` [Example Compound 117, methyl [(6S)-4-{4′-[({4-[(3-cyano-4-ethyl-1H-indol-7-yl)sulfamoyl]phenyl}methyl)carbamoyl]-2′-methyl[1,1′-biphenyl]-4-yl}-2,3,9-trimethyl-6H-thieno[3,2-f][1,2,4]triazolo[4,3-a][1,4]diazepin-6-yl]acetate] displayed a DC50 in assay [1] of 0.16 nM. Further, the IC50 in assay [2] turned out to be 0.41 nM.

For the compound `CCc1ccc(NS(=O)(=O)c2ccc(CNC(=O)c3ccc(-c4ccc(C5=N[C@@H](CC(=O)OC)c6nnc(C)n6-c6sc(C)c(C)c65)cc4)c(F)c3F)cc2)c2[nH]cc(C#N)c12` [Example Compound 118, methyl [(6S)-4-{4′-[({4-[(3-cyano-4-ethyl-1H-indol-7-yl)sulfamoyl]phenyl}methyl)carbamoyl]-2′,3′-difluoro[1,1′-biphenyl]-4-yl}-2,3,9-trimethyl-6H-thieno[3,2-f][1,2,4]triazolo[4,3-a][1,4]diazepin-6-yl]acetate], the DC50 in assay [1] amounted to 0.14 nM. In assay [2], this compound had an IC50 of 0.32 nM.

Regarding `CCc1ccc(NS(=O)(=O)c2ccc(CNC(=O)c3cc(F)c(-c4ccc(C5=N[C@@H](CC(=O)OC)c6nnc(C)n6-c6sc(C)c(C)c65)cc4)cc3F)cc2)c2[nH]cc(C#N)c12` [Example Compound 119, methyl [(6S)-4-{4′-[({4-[(3-cyano-4-ethyl-1H-indol-7-yl)sulfamoyl]phenyl}methyl)carbamoyl]-2′,5′-difluoro[1,1′-biphenyl]-4-yl}-2,3,9-trimethyl-6H-thieno[3,2-f][1,2,4]triazolo[4,3-a][1,4]diazepin-6-yl]acetate], the DC50 in assay [1] turned out to be 0.27 nM. The compound further registered an IC50 in assay [2] of 0.45 nM.

For `CCc1ccc(NS(=O)(=O)c2ccc(CNC(=O)c3cc(F)c(-c4ccc(C5=N[C@@H](CC(=O)OC)c6nnc(C)n6-c6sc(C)c(C)c65)cc4)cc3C)cc2)c2[nH]cc(C#N)c12` [Example Compound 120, methyl [(6S)-4-{4′-[({4-[(3-cyano-4-ethyl-1H-indol-7-yl)sulfamoyl]phenyl}methyl)carbamoyl]-2′-fluoro-5′-methyl[1,1′-biphenyl]-4-yl}-2,3,9-trimethyl-6H-thieno[3,2-f][1,2,4]triazolo[4,3-a][1,4]diazepin-6-yl]acetate], it took 0.26 nM to reach half-maximal degradation in assay [1] (DC50). This compound also displayed an IC50 in assay [2] of 0.41 nM.

As for `CCc1ccc(NS(=O)(=O)c2ccc([C@@H](C)NC(=O)c3ccc(-c4ccc(C5=N[C@@H](CC(=O)OC)c6nnc(C)n6-c6sc(C)c(C)c65)cc4)c(F)c3)cc2)c2[nH]cc(C#N)c12` [Example Compound 121, methyl [(6S)-4-(4′-{[(1R)-1-{4-[(3-cyano-4-ethyl-1H-indol-7-yl)sulfamoyl]phenyl}ethyl]carbamoyl}-2′-fluoro[1,1′-biphenyl]-4-yl)-2,3,9-trimethyl-6H-thieno[3,2-f][1,2,4]triazolo[4,3-a][1,4]diazepin-6-yl]acetate], the DC50 in assay [1] is 0.17 nM. The compound also yielded an IC50 in assay [2] of 0.22 nM.

As to `CCc1ccc(NS(=O)(=O)c2ccc([C@@H](C)NC(=O)c3ccc(-c4ccc(C5=N[C@@H](CC(=O)OC)c6nnc(C)n6-c6sc(C)c(C)c65)cc4)c(F)c3F)cc2)c2[nH]cc(C#N)c12` [Example Compound 122, methyl [(6S)-4-(4′-{[(1R)-1-{4-[(3-cyano-4-ethyl-1H-indol-7-yl)sulfamoyl]phenyl}ethyl]carbamoyl}-2′,3′-difluoro[1,1′-biphenyl]-4-yl)-2,3,9-trimethyl-6H-thieno[3,2-f][1,2,4]triazolo[4,3-a][1,4]diazepin-6-yl]acetate], it took 0.14 nM to reach half-maximal degradation in assay [1] (DC50). In assay [2], half-maximal inhibition (IC50) required 0.39 nM.

On to `CCc1ccc(NS(=O)(=O)c2ccc([C@@H](C)NC(=O)c3ccc(-c4ccc(C5=N[C@@H](CC(=O)OC)c6nnc(C)n6-c6sc(C)c(C)c65)cc4)cc3C)cc2)c2[nH]cc(C#N)c12` [Example Compound 123, methyl [(6S)-4-(4′-{[(1R)-1-{4-[(3-cyano-4-ethyl-1H-indol-7-yl)sulfamoyl]phenyl}ethyl]carbamoyl}-3′-methyl[1,1′-biphenyl]-4-yl)-2,3,9-trimethyl-6H-thieno[3,2-f][1,2,4]triazolo[4,3-a][1,4]diazepin-6-yl]acetate], for which the DC50 in assay [1] came out at 0.21 nM. In assay [2], this compound displayed an IC50 of 0.32 nM.

`CCc1ccc(NS(=O)(=O)c2ccc(CCNC(=O)c3ccc(-c4ccc(C5=N[C@@H](CC(=O)OC)c6nnc(C)n6-c6sc(C)c(C)c65)cc4)c(F)c3)cc2)c2[nH]cc(C#N)c12` [Example Compound 124, methyl [(6S)-4-{4′-[(2-{4-[(3-cyano-4-ethyl-1H-indol-7-yl)sulfamoyl]phenyl}ethyl)carbamoyl]-2′-fluoro[1,1′-biphenyl]-4-yl}-2,3,9-trimethyl-6H-thieno[3,2-f][1,2,4]triazolo[4,3-a][1,4]diazepin-6-yl]acetate]: half-maximal degradation in assay [1] (DC50) was put at 0.095 nM. The same compound displayed an IC50 in assay [2] of 0.27 nM.

Consider `CCc1ccc(NS(=O)(=O)c2ccc(CCNC(=O)c3ccc(-c4ccc(C5=N[C@@H](CC(=O)OC)c6nnc(C)n6-c6sc(C)c(C)c65)cc4)c(F)c3F)cc2)c2[nH]cc(C#N)c12` [Example Compound 125, methyl [(6S)-4-{4′-[(2-{4-[(3-cyano-4-ethyl-1H-indol-7-yl)sulfamoyl]phenyl}ethyl)carbamoyl]-2′,3′-difluoro[1,1′-biphenyl]-4-yl}-2,3,9-trimethyl-6H-thieno[3,2-f][1,2,4]triazolo[4,3-a][1,4]diazepin-6-yl]acetate], for which the DC50 in assay [1] was found to be 0.17 nM. The same compound returned an IC50 in assay [2] of 0.37 nM.

On to `CCc1ccc(NS(=O)(=O)c2ccc([C@@H](C)NC(=O)c3ccc(-c4ccc(C5=N[C@@H](CC(=O)OC)c6nnc(C)n6-c6sc(C)c(C)c65)cc4)cc3)cc2)c2[nH]cc(C#N)c12` [Example Compound 127, methyl [(6S)-4-(4′-{[(1R)-1-{4-[(3-cyano-4-ethyl-1H-indol-7-yl)sulfamoyl]phenyl}ethyl]carbamoyl}[1,1′-biphenyl]-4-yl)-2,3,9-trimethyl-6H-thieno[3,2-f][1,2,4]triazolo[4,3-a][1,4]diazepin-6-yl]acetate], for which the DC50 in assay [1] turned out to be 0.024 nM. The compound further showed an IC50 in assay [2] of 0.032 nM.

Compound `CCc1ccc(NS(=O)(=O)c2ccc(CCNC(=O)c3ccc(-c4ccc(C5=N[C@@H](CC(=O)OC)c6nnc(C)n6-c6sc(C)c(C)c65)cc4)cc3)cc2)c2[nH]cc(C#N)c12` [Example Compound 128, methyl [(6S)-4-{4′-[(2-{4-[(3-cyano-4-ethyl-1H-indol-7-yl)sulfamoyl]phenyl}ethyl)carbamoyl][1,1′-biphenyl]-4-yl}-2,3,9-trimethyl-6H-thieno[3,2-f][1,2,4]triazolo[4,3-a][1,4]diazepin-6-yl]acetate] yielded a DC50 in assay [1] of 0.039 nM. This compound also returned an IC50 in assay [2] of 0.074 nM.

As for `CCOC(=O)C[C@@H]1N=C(c2ccc(-c3ccc(C(=O)NCc4ccc(S(=O)(=O)Nc5ccc(C)c6c(C#N)c[nH]c56)cc4)cc3)cc2)c2c(sc(C)c2C)-n2c(C)nnc21` [Example Compound 129, ethyl [(6S)-4-{4′-[({4-[(3-cyano-4-methyl-1H-indol-7-yl)sulfamoyl]phenyl}methyl)carbamoyl][1,1′-biphenyl]-4-yl}-2,3,9-trimethyl-6H-thieno[3,2-f][1,2,4]triazolo[4,3-a][1,4]diazepin-6-yl]acetate], the DC50 in assay [1] was 0.033 nM. The same compound gave an IC50 in assay [2] of 0.048 nM.

`CCCOC(=O)C[C@@H]1N=C(c2ccc(-c3ccc(C(=O)NCc4ccc(S(=O)(=O)Nc5ccc(C)c6c(C#N)c[nH]c56)cc4)cc3)cc2)c2c(sc(C)c2C)-n2c(C)nnc21` [Example Compound 130, n-propyl [(6S)-4-{4′-[({4-[(3-cyano-4-methyl-1H-indol-7-yl)sulfamoyl]phenyl}methyl)carbamoyl][1,1′-biphenyl]-4-yl}-2,3,9-trimethyl-6H-thieno[3,2-f][1,2,4]triazolo[4,3-a][1,4]diazepin-6-yl]acetate]: in assay [1], the DC50 is 0.028 nM. The compound further returned an IC50 in assay [2] of 0.05 nM.

In turn, `Cc1sc2c(c1C)C(c1ccc(-c3ccc(C(=O)NCc4ccc(S(=O)(=O)Nc5ccc(C)c6c(C#N)c[nH]c56)cc4)cc3)cc1)=N[C@@H](CC(=O)OC(C)C)c1nnc(C)n1-2` [Example Compound 131, isopropyl [(6S)-4-{4′-[({4-[(3-cyano-4-methyl-1H-indol-7-yl)sulfamoyl]phenyl}methyl)carbamoyl][1,1′-biphenyl]-4-yl}-2,3,9-trimethyl-6H-thieno[3,2-f][1,2,4]triazolo[4,3-a][1,4]diazepin-6-yl]acetate] returned a DC50 in assay [1] of 0.035 nM. In assay [2], this compound displayed an IC50 of 0.065 nM.

Turning to `COc1ccc2c(c1)C(c1ccc(-c3ccc(C(=O)NCc4ccc(S(=O)(=O)Nc5ccc(C)c6c(C#N)c[nH]c56)cc4)cc3)cc1)=N[C@@H](CC(=O)OC(C)(C)C)c1nnc(C)n1-2` [Example Compound 132, t-butyl [(4S)-6-{4′-[({4-[(3-cyano-4-methyl-1H-indol-7-yl)sulfamoyl]phenyl}methyl)carbamoyl][1,1′-biphenyl]-4-yl}-8-methoxy-1-methyl-4H-[1,2,4]triazolo[4,3-a][1,4]benzodiazepin-4-yl]acetate], the DC50 in assay [1] turned out to be 0.13 nM. In assay [2], this compound came in with an IC50 of 0.21 nM.

In assay [1], `COC(=O)C[C@@H]1N=C(c2ccc(-c3ccc(C(=O)NCc4ccc(S(=O)(=O)Nc5ccc(C)c6c(C#N)c[nH]c56)cc4)cc3)cc2)c2cc(OC)ccc2-n2c(C)nnc21` [Example Compound 133, methyl [(4S)-6-{4′-[({4-[(3-cyano-4-methyl-1H-indol-7-yl)sulfamoyl]phenyl}methyl)carbamoyl][1,1′-biphenyl]-4-yl}-8-methoxy-1-methyl-4H-[1,2,4]triazolo[4,3-a][1,4]benzodiazepin-4-yl]acetate] yielded a DC50 of 0.34 nM. Besides, the IC50 in assay [2] worked out at 0.49 nM.
